From the NIST ThermoML archive (doi:10.1016/j.tca.2006.02.029)
Numbers after ± are expanded uncertainties.

Assay: excess molar enthalpy (molar enthalpy of mixing); xn = mol fraction of the nth substance listed
Conditions: 1065 K, 101 kPa, Liquid, Drop calorimetry

[Fe] [iron] + [Sb]
Conditions	excess molar enthalpy [kcal/mol]
x1 = 0.0023	0.0117 ± 0.000359
x1 = 0.0025	0.00933 ± 0.000335
x1 = 0.0049	0.0176 ± 0.000406
x1 = 0.0055	0.0233 ± 0.000478
x1 = 0.0075	0.0279 ± 0.000526
x1 = 0.008	0.0317 ± 0.00055
x1 = 0.0102	0.0359 ± 0.000598
x1 = 0.0114	0.0427 ± 0.000669
x1 = 0.0129	0.0455 ± 0.000693
x1 = 0.0135	0.0475 ± 0.000717
x1 = 0.0144	0.0535 ± 0.000765
x1 = 0.0148	0.0479 ± 0.000717
x1 = 0.0157	0.0538 ± 0.000765
x1 = 0.0187	0.0674 ± 0.000908
x1 = 0.0188	0.0624 ± 0.00086
x1 = 0.0232	0.079 ± 0.00103
x1 = 0.0271	0.0916 ± 0.00115
x1 = 0.029	0.0888 ± 0.00112
x1 = 0.0292	0.0913 ± 0.00115
x1 = 0.0316	0.105 ± 0.00129
x1 = 0.0359	0.118 ± 0.00141
x1 = 0.0407	0.131 ± 0.00155
x1 = 0.0442	0.131 ± 0.00155
x1 = 0.0445	0.128 ± 0.00153
x1 = 0.0455	0.145 ± 0.0017
x1 = 0.0591	0.165 ± 0.00189
x1 = 0.0609	0.168 ± 0.00191
x1 = 0.0762	0.201 ± 0.00225
x1 = 0.0765	0.204 ± 0.00227
x1 = 0.0942	0.229 ± 0.00263
x1 = 0.096	0.243 ± 0.00263
x1 = 0.1139	0.259 ± 0.00287
x1 = 0.1167	0.283 ± 0.00311
x1 = 0.1336	0.313 ± 0.00335
x1 = 0.1353	0.299 ± 0.00311
